Measured values from ChEMBL document CHEMBL1201862, “PubChem BioAssay data set” (2004).
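Compound exposure: 48 hours, 5 concentrations, 96-well plates. GI50 = concentration required for 50% inhibition of growth.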 Active and inactive are the calls of the source. No stated cut-off is given here; in the data, active = GI50 up to about 1.1 µM and inactive = higher.

Assays:
Assay in all cases: NCI anticancer screen, dose series, 48 h
[1] = tested on: A549
[2] = tested on: EKVX
[3] = tested on: HCT-15
[4] = tested on: HOP-92
[5] = tested on: KM12
[6] = tested on: LOX IMVI
[7] = tested on: NCI-H23
[8] = tested on: NCI-H522
[9] = tested on: OVCAR-8
[10] = tested on: RPMI-8226
[11] = tested on: RXF 393
[12] = tested on: SF-268
[13] = tested on: SK-OV-3
[14] = tested on: UO-31
[15] = tested on: SR

SMILES | GI50 [1] | GI50 [2] | GI50 [3] [µM] | GI50 [4] | GI50 [5] | GI50 [6] | GI50 [7] | GI50 [8] | GI50 [9] | GI50 [10] | GI50 [11] | GI50 [12] | GI50 [13] | GI50 [14] | GI50 [15]
COc1cc(/C=C2\Cc3ccccc3C2=O)cc(OC)c1OC | > 100 µM (inactive) | > 100 µM (inactive) | > 100 | 77.3 µM (inactive) | > 100 µM (inactive) | > 100 µM (inactive) | > 100 µM (inactive) | > 100 µM (inactive) | > 100 µM (inactive) | > 100 µM (inactive) | > 100 µM (inactive) | > 100 µM (inactive) | > 100 µM (inactive) | > 100 µM (inactive) | 
Cc1ccc2oc(=O)cc(CC(=O)O)c2c1 | > 100 µM (inactive) | > 100 µM (inactive) | > 100 | > 100 µM (inactive) | > 100 µM (inactive) | > 100 µM (inactive) | > 100 µM (inactive) | > 100 µM (inactive) | > 100 µM (inactive) | > 100 µM (inactive) | > 100 µM (inactive) | > 100 µM (inactive) | > 100 µM (inactive) |  | 
Cc1c(C(=O)CC(=O)C(=O)Nc2c(C(C)C)cccc2C(C)C)[n+]([O-])c2ccccc2[n+]1[O-] | 15.7 µM (inactive) | 13.8 µM (inactive) | 2.79 | 16.1 µM (inactive) | 3.47 µM (inactive) | 3.4 µM (inactive) | 13.2 µM (inactive) | 2.25 µM (inactive) | 2.57 µM (inactive) | 3.18 µM (inactive) | 13.5 µM (inactive) | 5.01 µM (inactive) | 16.7 µM (inactive) | 16.6 µM (inactive) | 
O=C(O)CCC1c2[nH]c3ccccc3c2CCN1Cc1ccccc1 (stereo unspecified) | > 100 µM (inactive) | > 100 µM (inactive) | > 100 | > 100 µM (inactive) | > 100 µM (inactive) | > 100 µM (inactive) | > 100 µM (inactive) | > 100 µM (inactive) | > 100 µM (inactive) |  |  | > 100 µM (inactive) | > 100 µM (inactive) | > 100 µM (inactive) | > 100 µM (inactive)
COc1ccc(/N=N/c2c(-c3ccccc3)nn(C(=O)CC(=O)Nc3ccc(OC)cc3)c2-c2ccccc2)cc1 | > 100 µM (inactive) | 71.1 µM (inactive) | > 100 | 16 µM (inactive) | > 100 µM (inactive) | > 100 µM (inactive) | 33 µM (inactive) | 61.5 µM (inactive) | > 100 µM (inactive) | > 100 µM (inactive) |  | 48.5 µM (inactive) | 40.6 µM (inactive) | > 100 µM (inactive) | 
O=C1Nc2cc(F)ccc2C1=O | > 100 µM (inactive) | > 100 µM (inactive) | > 100 | > 100 µM (inactive) | > 100 µM (inactive) | > 100 µM (inactive) | > 100 µM (inactive) | 60.7 µM (inactive) | > 100 µM (inactive) | > 100 µM (inactive) | > 100 µM (inactive) | > 100 µM (inactive) | > 100 µM (inactive) | > 100 µM (inactive) | 
NC(=O)CCC(Nc1c2ccccc2[n+]([O-])c2ccccc12)C(=O)O (stereo unspecified) | > 100 µM (inactive) | > 100 µM (inactive) | 46.7 |  | > 100 µM (inactive) | 49 µM (inactive) | 35.6 µM (inactive) | 29.9 µM (inactive) | 63 µM (inactive) | 18.6 µM (inactive) |  | 64.7 µM (inactive) | > 100 µM (inactive) | 58.3 µM (inactive) | 
C1=Cc2nc1c(-c1ccccc1)c1ccc([n-]1)c(-c1ccccc1)c1nc(c(-c3ccccc3)c3ccc([n-]3)c2-c2ccccc2)C=C1.[Zn+2] | > 100 µM (inactive) | > 100 µM (inactive) | > 100 | > 100 µM (inactive) | > 100 µM (inactive) | > 100 µM (inactive) | > 100 µM (inactive) | > 100 µM (inactive) | > 100 µM (inactive) | 75.7 µM (inactive) |  | > 100 µM (inactive) | > 100 µM (inactive) | > 100 µM (inactive) | 
